Holding throughout (set-up): species or system human
The test system of one experiment is HCT15 cells. Description: MDR cell based killing assay, HCT15 cells with or without Verapamil (CellTiter-Glo). Conditions: IC50 without Verapamil divided by IC50 with Verapamil. An outline of the steps: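 HCT15 colorectal cells (1000/well) in RPMI/10% FBS, with or without 5 ug/mL Verapamil, exposed to 1:3 serial dilutions (100 nM–15 pM) for 5 days. Viability by CellTiter-Glo ATP luminescence; IC50 (M) from four-parameter fit; ratio is IC50 without Verapamil divided by IC50 with Verapamil.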
In general terms: ATP-based viability assays read luminescence as a measure of living cells.

For experiment [1], the system named is C4-2 cells. The experiment in a line: Cell-based killing assay of payloads, C4-2 cells (CellTiter-Glo). As for the experimental part: (§1) To test the ability of the disclosed tubulysin payloads or prodrug payloads to kill human cell lines, an in vitro cytotoxicity assay can be performed. In vitro cytotoxicity of the disclosed payloads, as well as reference compounds, are evaluated using the CellTiter-Glo Assay Kit (Promega, Cat # G7573), in which the quantity of ATP present is used to determine the number of viable cells in culture. For the assay, C4-2, HEK293, or T47D cells are seeded at 4000 cells/well on Nunclon white 96-well plates in complete growth medium (DME high glucose:Ham's F12 at 4:1, 10% FBS, 100 units/ml Penicillin, 100 ug/ml streptomycin, 53 ug/ml glutatmine, 10 ug/ml insulin, 220 ng/ml biotin, 12.5 pg/ml T3, 12.5 ug/ml Adenine, 4 ug/ml transferrin for C42 cells; DME high glucose, 10% FBS, 100 units/ml Penicillin, 100 ug/ml streptomycin, 53 ug/ml glutatmine for HEK293; RPMI, 10% FBS, 100 units/ml Penicillin, 100 ug/ml streptomycin, 53 ug/ml glutatmine, 10 ug/ml insulin, 10 mM HEPEs, 200 nM Sodium Pyruvate for T47D cells) and grown overnight at 37° C. in 5% CO2. […] Relative luminescence units (RLU) can be determined on a Victor plate reader (PerkinElmer). The IC50 values are determined from a four-parameter logistic equation over a 10-point response curve (GraphPad Prism). […]

For experiment [2], the system named is C4-2 cells. Description: ADC cell based killing assay, C4-2 cells (anti-STEAP2 ADCs). As for the experimental part:
as §1

Setting [3] is: at the maximum concentration tested.

The structures appear in SMILES notation. Where a SMILES comes first, the peptide text is derived from it. [ ]: non-standard residue; d: D form. The star is where a group is joined. Dolaproine = CO[C@@H]([C@@H]1CCCN1)[C@@H](C)C(=O)O; Dil = CC[C@H](C)[C@H](NC)[C@@H](CC(=O)O)OC; X1 = C[C@@H](N*)[C@@H](O)c1ccccc1; NMeV = CN[C@H](C(=O)O)C(C)C

These results are taken from US20230069722A1, “TUBULYSINS AND PROTEIN-TUBULYSIN CONJUGATES” (priority 2020, published 2023).

As a reminder, the IC50 is the concentration that gives 50% inhibition. `CC[C@H](C)[C@@H]([C@@H](CC(=O)N1CCC[C@H]1[C@H](OC)[C@@H](C)C(=O)N[C@H](C)[C@@H](O)c1ccccc1)OC)N(C)C(=O)[C@@H](NC(=O)[C@@H](NC)C(C)C)C(C)C` [MMAE, Monomethyl auristatin E] (H-[NMeV]V[Dil][Dolaproine]-X1): the “HCT-15 IC50/HCT-15+Verapamil IC50 ratio” value in the experiment on HCT15 cells came to 23.7. In addition, the IC50 with C4-2 cells [1] (5-day incubation) was found to be 0.283 nM; in the experiment with C4-2 cells [2] (ADCs and reference payload), 0.22 nM. Further, the “maximum % cell killing, C4-2 cells” value with C4-2 cells [1] (setting [3]) stood at 93.7%. In addition, the “maximum percent killing, C4-2 cells” value in the experiment on C4-2 cells [2] (setting [3]) is 99%.
